Results taken from patent US8343475B2, “Small cationic antimicrobial peptides” (priority 2006, dated 2013).
Values after ≈ are worked out from the molar mass of the structure shown. Residues, ends and D or L forms follow the SMILES beside them. No end group written: not given here.

Legend:
[1] = system: Pseudomonas aeruginosa PAO1 strain H103; type: cell-based; conditions: PAO1
Outline: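 Modified broth microdilution MIC in Mueller Hinton medium, peptides diluted in 0.01% acetic acid/0.2% BSA, polypropylene plates. Inoculum 2-7×10^5 CFU/ml, overnight at 37 °C; MIC is the lowest concentration with no visible growth.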

[2] = system: LPS-stimulated TNFα production in THP-1 cells; assay: Suppression of P. aeruginosa LPS-stimulated TNFα production (ELISA); type: cell-based, human; conditions: for ability to inhibit TNFα responses compared with indolicidin: 10 ng/ml P. aeruginosa LPS, peptides at 10, 20 and 50 μg/ml (FIG. 13)
Procedure: FIG. 12. Assessment of the ability of peptides to suppress P. aeruginosa LPS (10 ng/ml)-stimulated TNFα production in THP1 cells. Presented results are the mean values for 4 wells performed on 2 separate occasions. The x-axis number labeling is the amount of each peptide in μg/ml for the corresponding peptides.
FIG. 13. Suppression of inflammatory responses by peptides. Monocyte/macrophage-like adherent THP-1 cells were stimulated with 10 ng/ml P. aeruginosa LPS and the resulting TNFα response measured. Peptides were added at 10, 20 and 50 μg/ml. The observed TNF-release was measured by ELISA and related to the 100% value of the untreated (without peptide) cells.
Cytotoxicity and TNFα suppression assay. THP1 cells were cultured in RPMI 1640 medium (supplemented with 10% (v/v) FCS, 1% L-glutamine, and […] sodium pyruvate) in E-toxa-clean (Sigma-Aldrich, Oakville, Ontario, Canada)-washed, endotoxin-free bottle. THP1 cells were counted and 250 μl per well of […] were transferred into a 96 well tissue cultured treated polystyrene microtiterplate (Beckton Dickinson, Franklin Lakes, USA). In addition PMA were added (1.3 nM) and the cells were incubated for three days. After three days the medium were exchanged and Pseudomonas aeruginosa LPS and the peptides were added. The incubation time was four hours and the supernatant was frozen at −20° C. The cells were stained with Tryphan Blue for 2 minutes and washed with PBS two times. The viability of the cells was determined by counting the stained cells over the unstained. The supernatent was used to measure the TNFα production by an ELISA (eBioscience, San Diego, USA) following the manufactures protocol.
LPS from P. aeruginosa strain H103 was highly purified free of proteins and lipids using the Darveau-Hancock method. Briefly, P. aeruginosa was grown overnight in LB broth at 37° C. Cells were collected and washed and the isolated LPS pellets were extracted with a 2:1 chloroform:methanol solution to remove contaminating lipids. Purified LPS samples were quantitated using an assay for the specific sugar 2-keto-3-deoxyoctosonic acid (KDO assay) and then resuspended in endotoxin-free water (Sigma-Aldrich).
Human monocytic cells, THP-1, were obtained from American type culture collection, ATCC® (TIB-202) and were grown in suspension in RPMI-1640 media (Gibco®, Invitrogen™ Life technologies, Burlington, ON), supplemented with 10% (v/v) heat inactivated fetal bovine serum (FBS), 2 mM L-glutamine and 1 mM sodium pyruvate (all from Invitrogen Life Technologies). Cultures were maintained at 37° C. in a humidified 5% (v/v) CO2 incubator up to a maximum of six passages. THP-1 cells at a density of 1×10^6 cells/ml were treated with 0.3 μg/ml phorbol 12-myristate 13-acetate (PMA; Sigma-Aldrich Canada, Oakville ON) for 24 hours, inducing plastic-adherent cells that were further rested in complete RPMI-1640 medium for an additional 24 hours prior to stimulation with various treatments including P. aeruginosa LPS (10 ng/ml) with or without peptides for 24 hours after which supernatants were collected and TNFα assessed by ELISA.
THP-1 cells were stimulated with LPS (10 ng/ml) with or without peptide (10 or 100 μg/ml) for 4 hours as indicated in the results section. Following incubation of the cells under various treatment regimens, the tissue culture supernatants were centrifuged at 1000×g for 5 min, then at 10,000×g for 2 min to obtain cell-free samples. Supernatants were aliquoted and then stored at −20° C. prior to assay for various cytokines. TNFα secretion was detected with a capture ELISA (eBioscience and BioSource International Inc., CA, USA respectively).

[3] = system: Enterococcus faecalis ATCC29212; type: cell-based; conditions: ATCC29212
Outline: (§1)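 MIC by modified broth microdilution in Mueller Hinton medium. Peptides were diluted in 0.01% acetic acid with 0.2% BSA and added at 10× to inoculum of 2-7×10^5 CFU/ml, then incubated overnight at 37 °C. MIC is the lowest concentration with no visible growth.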

[4] = system: Staphylococcus aureus ATCC25923; type: cell-based; conditions: ATCC25923
Outline: as §1

[5] = system: clinical isolate of Staphylococcus epidermidis; type: cell-based; conditions: clinical isolate of
Outline: as §1

[6] = system: lab isolate of Candida albicans; type: cell-based; conditions: lab isolate of
Outline: as §1

Escherichia coli UB1005 = type: cell-based; conditions: indolicidin substitution variants (Table 4)
Outline: as §1

[7] = system: wild-type Salmonella enterica ssp. typhimurium; type: cell-based
Outline: as §1

## CC[C@H](C)[C@H](N)C(=O)N[C@@H](CC(C)C)C(=O)N1CCC[C@H]1C(=O)N[C@@H](Cc1c[nH]c2ccccc12)C(=O)N[C@@H](CCCCN)C(=O)N[C@@H](Cc1c[nH]c2ccccc12)C(=O)N1CCC[C@H]1C(=O)N[C@@H](Cc1c[nH]c2ccccc12)C(=O)N[C@@H](Cc1c[nH]c2ccccc12)C(=O)N[C@@H](CCCCN)C(=O)N[C@@H](Cc1c[nH]c2ccccc12)C(=O)N[C@@H](CCCNC(=N)N)C(=O)N[C@@H](CCCNC(=N)N)C(N)=O [HH117, ILPWKWPWWKWRR] (H-ILPWKWPWWKWRR-NH2; N-terminus assumed)
[1]
  MIC P. aerug: 16 µg/mL (≈ 8.26 µM)
[2]
  ability to inhibit TNFα responses compared with indolicidin: slightly better or equivalent than indolicidin
[3]
  MIC E. faecalis: 31 µg/mL (≈ 16 µM)
[4]
  MIC S. aureus: 8 µg/mL (≈ 4.13 µM)
[5]
  MIC S. epi.: 2 µg/mL (≈ 1.03 µM)
[6]
  MIC C. albicans: 16 µg/mL (≈ 8.26 µM)
Escherichia coli UB1005
  MIC E. coli: 8 µg/mL (≈ 4.13 µM)
[7]
  MIC S. typhi: 31 µg/mL (≈ 16 µM)

## HH1010: peptide derived from indolicidin; sequence not in the text shown (ILRWKWRWWRWRR-NH2)
[2]
  ability to inhibit TNFα responses compared with indolicidin: slightly better or equivalent than indolicidin

## CC[C@H](C)[C@H](N)C(=O)N[C@@H](CC(C)C)C(=O)N1CCC[C@H]1C(=O)N[C@@H](Cc1c[nH]c2ccccc12)C(=O)N[C@@H](Cc1c[nH]c2ccccc12)C(=O)N[C@@H](Cc1c[nH]c2ccccc12)C(=O)N1CCC[C@H]1C(=O)N[C@@H](Cc1c[nH]c2ccccc12)C(=O)N[C@@H](Cc1c[nH]c2ccccc12)C(=O)N1CCC[C@H]1C(=O)N[C@@H](Cc1c[nH]c2ccccc12)C(=O)N[C@@H](CCCNC(=N)N)C(=O)N[C@@H](CCCNC(=N)N)C(N)=O [HH235, ILPWWWPWWPWRR] (H-ILPWWWPWWPWRR-NH2; N-terminus assumed)
[1]
  MIC P. aerug: >84 µg/mL
[2]
  ability to inhibit TNFα responses compared with indolicidin: slightly better or equivalent than indolicidin
[3]
  MIC E. faecalis: 84 µg/mL (≈ 42.8 µM)
[4]
  MIC S. aureus: 20 µg/mL (≈ 10.2 µM)
[5]
  MIC S. epi.: 5 µg/mL (≈ 2.55 µM)
[6]
  MIC C. albicans: 84 µg/mL (≈ 42.8 µM)
Escherichia coli UB1005
  MIC E. coli: >84 µg/mL
[7]
  MIC S. typhi: >84 µg/mL

## LL-37 [reference compound]
[2]; P. aeruginosa LPS 10 ng/ml (FIG. 12)
  suppression of LPS-induced TNFα: strongly suppressed

## CC[C@H](C)[C@H](N)C(=O)N[C@@H](CC(C)C)C(=O)N1CCC[C@H]1C(=O)N[C@@H](Cc1c[nH]c2ccccc12)C(=O)N[C@@H](CCCCN)C(=O)N[C@@H](Cc1ccccc1)C(=O)N1CCC[C@H]1C(=O)N[C@@H](Cc1c[nH]c2ccccc12)C(=O)N[C@@H](Cc1c[nH]c2ccccc12)C(=O)N1CCC[C@H]1C(=O)N[C@@H](Cc1c[nH]c2ccccc12)C(=O)N[C@@H](CCCNC(=N)N)C(=O)N[C@@H](CCCNC(=N)N)C(N)=O [HH63, ILPWKFPWWPWRR] (H-ILPWKFPWWPWRR-NH2; N-terminus assumed)
[1]
  MIC P. aerug: 62 µg/mL (≈ 33.2 µM)
[2]
  ability to inhibit TNFα responses compared with indolicidin: slightly better or equivalent than indolicidin
[3]
  MIC E. faecalis: 31 µg/mL (≈ 16.6 µM)
[4]
  MIC S. aureus: 8 µg/mL (≈ 4.28 µM)
[5]
  MIC S. epi.: 4 µg/mL (≈ 2.14 µM)
[6]
  MIC C. albicans: 16 µg/mL (≈ 8.57 µM)
Escherichia coli UB1005
  MIC E. coli: 16 µg/mL (≈ 8.57 µM)
[7]
  MIC S. typhi: 31 µg/mL (≈ 16.6 µM)

## HH1011: peptide derived from indolicidin; sequence not in the text shown (RWRWWRWRR-NH2)
[2]
  ability to inhibit TNFα responses compared with indolicidin: slightly better or equivalent than indolicidin

## CC[C@H](C)[C@H](N)C(=O)N[C@@H](CC(C)C)C(=O)N[C@@H](CCCCN)C(=O)N[C@@H](Cc1c[nH]c2ccccc12)C(=O)N[C@@H](CCCCN)C(=O)N[C@@H](Cc1c[nH]c2ccccc12)C(=O)N1CCC[C@H]1C(=O)N[C@@H](Cc1c[nH]c2ccccc12)C(=O)N[C@@H](Cc1c[nH]c2ccccc12)C(=O)N1CCC[C@H]1C(=O)N[C@@H](Cc1c[nH]c2ccccc12)C(=O)N[C@@H](CCCNC(=N)N)C(=O)N[C@@H](CCCNC(=N)N)C(N)=O [HH111, ILKWKWPWWPWRR]
[1]
  MIC P. aerug: 16 µg/mL (≈ 8.26 µM)
[2]
  ability to inhibit TNFα responses compared with indolicidin: slightly better or equivalent than indolicidin
[3]
  MIC E. faecalis: 31 µg/mL (≈ 16 µM)
[4]
  MIC S. aureus: 8 µg/mL (≈ 4.13 µM)
[5]
  MIC S. epi.: 4 µg/mL (≈ 2.06 µM)
[6]
  MIC C. albicans: 8 µg/mL (≈ 4.13 µM)
Escherichia coli UB1005
  MIC E. coli: 8 µg/mL (≈ 4.13 µM)
[7]
  MIC S. typhi: 31 µg/mL (≈ 16 µM)
